US8735623B2, “Process for preparing creatine amides” (priority 2009, dated 2014)
Where two headings read alike, the source gives them in different places.

Assays:
[1] = system: rat model of focal ischemia; conditions: 30 min ischemia, 48 hour reperfusion, male Wistar rat
Procedure: Research of the neuroprotective action of amides of creatine was carried out in a rat model of focal ischemia (male, Wistar, 12÷14 weeks, 220÷240 g). Anesthesia was performed by sodium thiopental 60 mg/kg. A solution of amides of creatine in saline was administered intravenous to the first group of animals 45 min before ischemia, saline was administered to a control group, a solution of amides of creatine in saline was administered intragastric per os by an enteral tube a day before ischemia to the second group of animals 3 times per day, saline was administered to a control group.
Standard time of ischemia constituted 30 min, standard time of reperfusion constituted 48 hour. The animals were sacrificed, brain slices with thickness of 2 mm were produced for assessing a brain damage volume. The damage area was determined by staining with […] followed by data acquisition and analysis of stained slice digital images. A brain damage coefficient, i.e. a relation of damage area to the slice surface was calculated (Table 1).

[2] = system: rat model of focal ischemia; conditions: score 18 max, 3 min
Procedure: Cerebral ischemia was induced by the method mentioned above. A solution of amides of creatine or saline was administered intravenous. […] Testing the animals was carried out before ischemia, on a second and third days after ischemia-reperfusion at a fixed time for exclusion of behavioral changes by means of circadian rhythm. Spontaneous activity, symmetrical limb movement, climbing onto vertical reticulated wall, body proprioreception, touching to vibriss were assessed. A maximum point by assigned score was 18 (lack of neurological deficit), minimum—3 (severe neurological deficit).

[3] = Stability in artificial gastric secretion (HPLC); conditions: 37° C.
Procedure: 10 mg of amides of creatine was dissolved in 20 mL of artificial gastric secretion for study of amides of creatine stability, solution aliquot was place into vial for chromatograph. Vial with solution was place into chromatograph autosampler at 37° C. Initial concentration of amides of creatine and its relative change in gastric secretion were determined by HPLC at indicated temperature (Table 3).

[4] = 37° C.
Procedure: Stability of amides of creatine in human plasma was assessed by relative change in concentration of amides of creatine in plasma. 1 mL of plasma was mixed with 0.2 mL of amides of creatine aqueous solution with concentration 5 mg/mL, a mixture was kept at a temperature of 37° C., aliquot of volume 0.2 mL was drawn in fixed time ranges, mixed with 0.02 mL of trifluoroacetic acid 10% solution, a precipitate was centrifuged at […] for 20 min. A concentration of amides of creatine in supernatant was determined by HPLC method (Table 4).

[5] = 20-30 g per day for a few days; cited from earlier work
[6] = in vivo; cited from earlier work
[7] = i./v., 150 mg/kg, 45 min before ischemia
[8] = per os, 3 × 150 mg/kg, a day before ischemia

Structure (SMILES): CC(=O)O.CC(C)OC(=O)CNC(=O)CN(C)C(=N)N [Agent 1, Creatinyl-Glycine iso-Propyl Ester Acetate]
- Brain damage coefficient [1, 7]: 11.2 ± 2.3%
- Brain damage coefficient [1, 8]: 14.2 ± 3.0%
- Neurological condition by Garcia score, 2nd day after ischemia ([2]; 150 mg/kg intravenous): 10 ± 2
- Neurological condition by Garcia score, 3rd day after ischemia ([2]; 150 mg/kg intravenous): 15 ± 2
- Neurological condition by Garcia score, 1 day before ischemia ([2]; 150 mg/kg intravenous): 18 ± 0
- Stability in gastric secretion ([3]; 0 hour): 100%
- Stability in gastric secretion ([3]; 1 hour): 100%
- Stability in gastric secretion ([3]; 3 hours): 99%
- Stability in gastric secretion ([3]; 5 hours): 97%
- Stability in human plasma ([4]; 0 hour): 100%
- Stability in human plasma ([4]; 0.25 hour): 100%
- Stability in human plasma ([4]; 0.5 hours): 99%
- Stability in human plasma ([4]; 1 hour): 91%

Structure (SMILES): CC(=O)O.CCOC(=O)CNC(=O)CNC(=O)CN(C)C(=N)N [Agent 2, Creatinyl-Glycyl-Glycine Ethyl Ester Acetate]
- Brain damage coefficient ([1]; i./v., 200 mg/kg, 45 min before ischemia): 12.1 ± 2.0%
- Stability in gastric secretion ([3]; 0 hour): 100%
- Stability in gastric secretion ([3]; 1 hour): 100%
- Stability in gastric secretion ([3]; 3 hours): 98%
- Stability in gastric secretion ([3]; 5 hours): 98%
- Stability in human plasma ([4]; 0 hour): 100%
- Stability in human plasma ([4]; 0.25 hour): 100%
- Stability in human plasma ([4]; 0.5 hours): 97%
- Stability in human plasma ([4]; 1 hour): 90%

Structure (SMILES): CCNC(=O)CNC(=O)CN(C)C(=N)N.O=C(O)C(O)C(O)C(=O)O [Agent 3, Creatinyl-Glycine Ethylamide Tartrate]
- Brain damage coefficient [1, 7]: 12.0 ± 1.7%
- Brain damage coefficient [1, 8]: 13.9 ± 3.3%
- Neurological condition by Garcia score, 2nd day after ischemia ([2]; 150 mg/kg intravenous): 11 ± 2
- Neurological condition by Garcia score, 3rd day after ischemia ([2]; 150 mg/kg intravenous): 16 ± 1
- Neurological condition by Garcia score, 1 day before ischemia ([2]; 150 mg/kg intravenous): 18 ± 0
- Stability in gastric secretion ([3]; 0 hour): 100%
- Stability in gastric secretion ([3]; 1 hour): 100%
- Stability in gastric secretion ([3]; 3 hours): 97%
- Stability in gastric secretion ([3]; 5 hours): 98%
- Stability in human plasma ([4]; 0 hour): 100%
- Stability in human plasma ([4]; 0.25 hour): 100%
- Stability in human plasma ([4]; 0.5 hours): 95%
- Stability in human plasma ([4]; 1 hour): 90%

Structure (SMILES): CC(=O)O.CC(=O)O.CCOC(=O)[C@@H](N)CCCCNC(=O)CN(C)C(=N)N [Agent 4, N^ε-Creatinyl-Lysine Ethyl Ester Diacetate]
- Brain damage coefficient ([1]; i./v., 100 mg/kg, 45 min before ischemia): 13.3 ± 3.2%
- Brain damage coefficient ([1]; per os, 3 × 100 mg/kg, a day before ischemia): 15.2 ± 2.9%
- Neurological condition by Garcia score, 2nd day after ischemia ([2]; 100 mg/kg intravenous): 14 ± 1
- Neurological condition by Garcia score, 3rd day after ischemia ([2]; 100 mg/kg intravenous): 17 ± 2
- Neurological condition by Garcia score, 1 day before ischemia ([2]; 100 mg/kg intravenous): 18 ± 0
- Stability in gastric secretion ([3]; 0 hour): 100%
- Stability in gastric secretion ([3]; 1 hour): 100%
- Stability in gastric secretion ([3]; 3 hours): 98%
- Stability in gastric secretion ([3]; 5 hours): 97%
- Stability in human plasma ([4]; 0 hour): 100%
- Stability in human plasma ([4]; 0.25 hour): 100%
- Stability in human plasma ([4]; 0.5 hours): 100%
- Stability in human plasma ([4]; 1 hour): 89%

Structure (SMILES): CCNC(=O)C(Cc1ccccc1)NC(=O)CN(C)C(=N)N.Cl (stereo not shown) [Agent 5, Creatinyl-Phenylalanine Ethylamide Hydrochloride]
- Brain damage coefficient ([1]; i./v., 50 mg/kg, 45 min before ischemia): 14.0 ± 1.1%
- Neurological condition by Garcia score, 2nd day after ischemia ([2]; 50 mg/kg intravenous): 11 ± 1
- Neurological condition by Garcia score, 3rd day after ischemia ([2]; 50 mg/kg intravenous): 14 ± 1
- Neurological condition by Garcia score, 1 day before ischemia ([2]; 50 mg/kg intravenous): 18 ± 0
- Stability in gastric secretion ([3]; 0 hour): 100%
- Stability in gastric secretion ([3]; 1 hour): 100%
- Stability in gastric secretion ([3]; 3 hours): 98%
- Stability in gastric secretion ([3]; 5 hours): 99%
- Stability in human plasma ([4]; 0 hour): 100%
- Stability in human plasma ([4]; 0.25 hour): 100%
- Stability in human plasma ([4]; 0.5 hours): 97%
- Stability in human plasma ([4]; 1 hour): 87%

Structure (SMILES): CC(=O)O.CCOC(=O)CCCNC(=O)CN(C)C(=N)N [Agent 6, Creatinyl-γ-Aminobutyric acid Ethyl Ester acetate]
- Brain damage coefficient ([1]; i./v., 45 mg/kg, 45 min before ischemia): 13.1 ± 1.0%
- Neurological condition by Garcia score, 2nd day after ischemia ([2]; 45 mg/kg intravenous): 14 ± 0
- Neurological condition by Garcia score, 3rd day after ischemia ([2]; 45 mg/kg intravenous): 16.0 ± 1.1
- Neurological condition by Garcia score, 1 day before ischemia ([2]; 45 mg/kg intravenous): 18 ± 0
- Stability in gastric secretion ([3]; 0 hour): 100%
- Stability in gastric secretion ([3]; 1 hour): 100%
- Stability in gastric secretion ([3]; 3 hours): 99%
- Stability in gastric secretion ([3]; 5 hours): 99%

Structure (SMILES): CN(CC(=O)O)C(=N)N.O [creatine monohydrate]
- Increasing of total creatine content in human skeletal muscles [5]: more than 20%

Structure (SMILES): CN(CC(=O)O)C(=N)N [creatine, Creatine]
- Extent of absorbtion from gastro-intestinal tract [6]: 1 to 14%
